ChEMBL document CHEMBL3593227, “A New Class of Potent N-Methyl-D-Aspartate Receptor Inhibitors: Sulfated Neuroactive Steroids with Lipophilic D-Ring Modifications” (J Med Chem, 2015)
The source made the active and inactive calls. The calls are words filed in the database; no cut-off is given here.

How the values were obtained:
[1] = target: T1, Glutamate NMDA receptor; GRIN1/GRIN2B (Homo sapiens, UniProt Q05586+Q13224); test: Inhibition of recombinant GluN1/GluN2B receptor (unknown origin) expressed in HEK293 cells assessed as inhibition of glutamate-evoked current by whole-cell voltage-clamp method; format: cell-based
[2] = target: Glutamate NMDA receptor; GRIN1/GRIN2A (Homo sapiens, UniProt Q05586+Q12879); test: Inhibition of recombinant GluN1/GluN2A receptor (unknown origin) expressed in HEK293 cells assessed as inhibition of glutamate-evoked current by whole-cell voltage-clamp method; format: cell-based
Chain of Glutamate NMDA receptor; GRIN1/GRIN2A (Q12879 whole entry, other chains not shown): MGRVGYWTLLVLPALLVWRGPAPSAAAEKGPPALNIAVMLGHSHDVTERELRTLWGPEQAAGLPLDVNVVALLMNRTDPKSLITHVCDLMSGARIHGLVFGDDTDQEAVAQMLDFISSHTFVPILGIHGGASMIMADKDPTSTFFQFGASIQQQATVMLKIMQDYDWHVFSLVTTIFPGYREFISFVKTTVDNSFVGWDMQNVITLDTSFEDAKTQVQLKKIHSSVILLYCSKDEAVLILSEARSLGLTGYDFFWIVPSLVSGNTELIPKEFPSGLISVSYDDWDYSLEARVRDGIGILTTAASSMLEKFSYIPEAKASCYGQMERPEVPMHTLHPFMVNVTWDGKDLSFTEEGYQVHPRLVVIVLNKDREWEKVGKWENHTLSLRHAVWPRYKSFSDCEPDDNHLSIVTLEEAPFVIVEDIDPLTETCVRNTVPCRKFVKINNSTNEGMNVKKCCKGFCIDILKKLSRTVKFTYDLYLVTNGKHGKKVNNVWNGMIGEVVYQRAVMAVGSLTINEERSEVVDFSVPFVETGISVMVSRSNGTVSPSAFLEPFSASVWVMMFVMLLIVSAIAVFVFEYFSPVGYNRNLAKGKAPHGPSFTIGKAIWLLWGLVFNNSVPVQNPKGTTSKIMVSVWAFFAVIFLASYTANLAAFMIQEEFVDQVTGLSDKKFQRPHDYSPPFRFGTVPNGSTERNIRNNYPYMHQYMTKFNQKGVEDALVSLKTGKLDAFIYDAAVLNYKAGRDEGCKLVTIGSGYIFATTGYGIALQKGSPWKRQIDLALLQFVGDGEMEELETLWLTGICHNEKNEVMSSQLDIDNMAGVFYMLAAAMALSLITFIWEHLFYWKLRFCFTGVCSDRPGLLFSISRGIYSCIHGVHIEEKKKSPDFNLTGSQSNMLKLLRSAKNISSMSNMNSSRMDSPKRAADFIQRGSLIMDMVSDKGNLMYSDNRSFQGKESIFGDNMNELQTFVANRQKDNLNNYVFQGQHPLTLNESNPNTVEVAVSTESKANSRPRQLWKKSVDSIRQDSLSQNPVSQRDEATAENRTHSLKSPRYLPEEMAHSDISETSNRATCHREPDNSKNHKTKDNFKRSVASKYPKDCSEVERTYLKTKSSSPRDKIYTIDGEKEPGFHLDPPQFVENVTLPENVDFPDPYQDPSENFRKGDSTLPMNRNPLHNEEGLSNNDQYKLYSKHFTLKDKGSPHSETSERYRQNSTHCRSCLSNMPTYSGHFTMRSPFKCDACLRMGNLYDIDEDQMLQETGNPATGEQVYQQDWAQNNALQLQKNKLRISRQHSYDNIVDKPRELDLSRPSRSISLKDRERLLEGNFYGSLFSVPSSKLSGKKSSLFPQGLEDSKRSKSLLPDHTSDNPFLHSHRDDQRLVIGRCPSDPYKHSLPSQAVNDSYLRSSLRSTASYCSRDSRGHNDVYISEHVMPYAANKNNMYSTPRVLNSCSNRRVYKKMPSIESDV

[3] = target: Ionotropic glutamate receptor NMDA 1/2C (Homo sapiens, UniProt Q05586+Q14957); test: Inhibition of recombinant GluN1/GluN2C receptor (unknown origin) expressed in HEK293 cells assessed as inhibition of glutamate-evoked current by whole-cell voltage-clamp method; format: cell-based
Chain of Ionotropic glutamate receptor NMDA 1/2C (Q14957 whole entry, other chains not shown): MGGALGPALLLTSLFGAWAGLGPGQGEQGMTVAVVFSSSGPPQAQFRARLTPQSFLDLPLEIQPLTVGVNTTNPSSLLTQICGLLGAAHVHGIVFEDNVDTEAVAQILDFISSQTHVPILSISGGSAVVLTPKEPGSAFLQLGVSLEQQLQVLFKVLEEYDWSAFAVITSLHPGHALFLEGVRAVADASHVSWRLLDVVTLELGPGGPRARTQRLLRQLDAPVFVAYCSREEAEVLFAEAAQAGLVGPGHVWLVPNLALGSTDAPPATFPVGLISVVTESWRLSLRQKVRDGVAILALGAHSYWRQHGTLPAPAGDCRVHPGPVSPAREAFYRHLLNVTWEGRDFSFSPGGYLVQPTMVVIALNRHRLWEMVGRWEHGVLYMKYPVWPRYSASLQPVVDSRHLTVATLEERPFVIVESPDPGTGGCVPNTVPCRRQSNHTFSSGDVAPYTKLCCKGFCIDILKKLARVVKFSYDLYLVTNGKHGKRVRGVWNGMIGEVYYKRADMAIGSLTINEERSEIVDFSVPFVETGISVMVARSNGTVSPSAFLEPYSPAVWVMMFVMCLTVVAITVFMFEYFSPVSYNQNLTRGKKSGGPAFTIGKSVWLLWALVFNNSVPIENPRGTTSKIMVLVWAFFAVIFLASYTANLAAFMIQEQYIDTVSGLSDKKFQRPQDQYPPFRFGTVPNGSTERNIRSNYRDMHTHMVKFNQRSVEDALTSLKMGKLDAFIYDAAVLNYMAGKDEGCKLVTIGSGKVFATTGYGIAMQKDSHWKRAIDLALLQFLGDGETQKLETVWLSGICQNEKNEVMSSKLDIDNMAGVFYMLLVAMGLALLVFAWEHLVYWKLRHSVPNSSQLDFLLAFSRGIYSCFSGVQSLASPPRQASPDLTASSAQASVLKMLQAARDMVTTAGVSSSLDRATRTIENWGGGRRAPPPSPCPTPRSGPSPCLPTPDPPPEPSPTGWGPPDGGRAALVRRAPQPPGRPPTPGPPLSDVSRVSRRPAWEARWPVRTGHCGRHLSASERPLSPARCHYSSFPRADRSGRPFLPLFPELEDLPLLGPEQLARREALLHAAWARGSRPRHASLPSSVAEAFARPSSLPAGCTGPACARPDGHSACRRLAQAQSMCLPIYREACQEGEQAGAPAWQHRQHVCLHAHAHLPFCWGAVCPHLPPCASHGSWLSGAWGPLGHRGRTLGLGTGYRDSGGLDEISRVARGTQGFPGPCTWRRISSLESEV

[4] = target: Ionotropic glutamate receptor NMDA 1/2D (Homo sapiens, UniProt O15399+Q05586); test: Inhibition of recombinant GluN1/GluN2D receptor (unknown origin) expressed in HEK293 cells assessed as inhibition of glutamate-evoked current by whole-cell voltage-clamp method; format: cell-based
Chain of Ionotropic glutamate receptor NMDA 1/2D (O15399 whole entry, other chains not shown): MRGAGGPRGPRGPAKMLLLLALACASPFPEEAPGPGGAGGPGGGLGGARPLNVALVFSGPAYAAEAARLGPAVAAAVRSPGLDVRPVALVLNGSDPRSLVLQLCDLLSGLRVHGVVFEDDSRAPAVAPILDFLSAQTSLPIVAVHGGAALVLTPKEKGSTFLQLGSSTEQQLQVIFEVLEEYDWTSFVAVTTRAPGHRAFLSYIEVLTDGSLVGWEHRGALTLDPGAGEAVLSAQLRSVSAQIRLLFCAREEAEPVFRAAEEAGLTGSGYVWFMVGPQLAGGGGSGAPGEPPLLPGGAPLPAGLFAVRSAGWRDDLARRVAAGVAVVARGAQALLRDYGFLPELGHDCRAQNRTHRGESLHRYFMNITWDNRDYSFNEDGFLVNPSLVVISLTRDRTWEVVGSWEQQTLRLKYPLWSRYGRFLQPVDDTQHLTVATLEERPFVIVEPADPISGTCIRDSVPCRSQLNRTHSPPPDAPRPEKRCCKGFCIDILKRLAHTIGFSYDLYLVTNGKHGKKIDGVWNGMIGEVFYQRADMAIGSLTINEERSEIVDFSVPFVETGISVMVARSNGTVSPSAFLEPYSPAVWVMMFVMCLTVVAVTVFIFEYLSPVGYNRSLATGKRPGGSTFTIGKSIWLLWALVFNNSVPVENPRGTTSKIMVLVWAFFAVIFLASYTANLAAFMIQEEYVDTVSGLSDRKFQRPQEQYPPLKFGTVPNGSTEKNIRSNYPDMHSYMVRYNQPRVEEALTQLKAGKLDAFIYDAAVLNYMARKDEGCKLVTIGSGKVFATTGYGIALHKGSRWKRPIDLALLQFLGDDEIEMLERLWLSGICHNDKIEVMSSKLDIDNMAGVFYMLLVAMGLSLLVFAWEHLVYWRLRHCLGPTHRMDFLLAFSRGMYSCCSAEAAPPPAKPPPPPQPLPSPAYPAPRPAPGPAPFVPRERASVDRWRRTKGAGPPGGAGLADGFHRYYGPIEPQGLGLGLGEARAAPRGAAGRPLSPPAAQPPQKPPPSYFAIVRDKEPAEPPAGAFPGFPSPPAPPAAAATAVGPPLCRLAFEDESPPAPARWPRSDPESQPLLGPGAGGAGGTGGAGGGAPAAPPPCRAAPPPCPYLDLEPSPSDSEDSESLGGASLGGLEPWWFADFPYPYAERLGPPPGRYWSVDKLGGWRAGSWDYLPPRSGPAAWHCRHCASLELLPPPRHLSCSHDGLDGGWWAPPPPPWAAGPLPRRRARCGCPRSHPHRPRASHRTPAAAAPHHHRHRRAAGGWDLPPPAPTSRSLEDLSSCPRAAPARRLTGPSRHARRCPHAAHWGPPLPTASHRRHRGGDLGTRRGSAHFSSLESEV

Glutamate NMDA receptor = test: Inhibition of NMDA receptor in rat hippocampal neurons assessed as inhibition of glutamate-evoked current by whole-cell voltage-clamp method; format: tissue-based, Hippocampus
[5] = Inhibition of AMPA receptor in rat hippocampal neurons assessed as inhibition of AMPA-evoked current by whole-cell voltage-clamp method in presence of receptor desensitization inhibitor cyclothiazide; format: tissue-based; details: Hippocampus
[6] = Inhibition of GABA receptor in rat hippocampal neurons assessed as inhibition of GABA-evoked current by whole-cell voltage-clamp method; format: tissue-based; details: Hippocampus
[7] = target: T1, Glutamate NMDA receptor; GRIN1/GRIN2B; test: Inhibition of recombinant GluN1/GluN2B receptor (unknown origin) expressed in HEK293 cells assessed as inhibition of glutamate-evoked current at 1 to 10 uM by whole-cell voltage-clamp method; format: cell-based

For `CC(=O)[C@H]1CC[C@H]2[C@@H]3CC[C@@H]4C[C@H](OS(=O)(=O)O)CC[C@]4(C)[C@H]3CC[C@]12C`, the IC50 [1] was 23400 nM and the inhibition [1] was “Dose-dependent effect”.

`CC(C)[C@H]1CC[C@H]2[C@@H]3CC[C@@H]4C[C@H](OS(=O)(=O)O)CC[C@]4(C)[C@H]3CC[C@]12C.c1ccncc1` gave an IC50 [1] of 170 nM.

Work on `C[C@]12CC[C@@H](OS(=O)(=O)O)C[C@H]1CC[C@@H]1[C@@H]2CC[C@@]2(C)[C@H]1CCC2(F)F.c1ccncc1` yielded an IC50 [1] of 7000 nM.

Work on `C[C@@]12CCCC[C@H]1[C@@H]1CC[C@@H]3C[C@H](OS(=O)(=O)O)CC[C@]3(C)[C@H]1CC2.c1ccncc1` yielded an IC50 [1] of 1100 nM.

`C[C@@H]1CC[C@@H]2[C@H]1CC[C@H]1[C@H]2CC[C@@H]2C[C@H](OS(=O)(=O)O)CC[C@@]21C.c1ccncc1` gave an IC50 [1] of 900 nM.

`C[C@H]1CC[C@@H]2[C@@H]1CC[C@H]1[C@H]2CC[C@@H]2C[C@H](OS(=O)(=O)O)CC[C@@]21C.c1ccncc1` showed an IC50 [1] of 700 nM.

`C[C@@]12CCC[C@H]1[C@@H]1CC[C@@H]3C[C@H](OS(=O)(=O)O)CC[C@@H]3[C@H]1CC2.c1ccncc1` showed an IC50 [1] of 5400 nM.

In the case of `C=C(C)[C@H]1CC[C@H]2[C@@H]3CC[C@@H]4C[C@H](OS(=O)(=O)O)CC[C@]4(C)[C@H]3CC[C@]12C.c1ccncc1`, the IC50 [1] is reported as 500 nM.

With `C/C=C1/CC[C@H]2[C@@H]3CC[C@@H]4C[C@H](OS(=O)(=O)O)CC[C@]4(C)[C@H]3CC[C@]12C.c1ccncc1` the IC50 [1] was 800 nM.

Work on `C[C@@]12CCC[C@H]1[C@@H]1CC[C@@H]3C[C@H](OS(=O)(=O)O)CC[C@]3(C)[C@H]1CC2.c1ccncc1` yielded an IC50 [1] of 1200 nM.

Compound `C[C@H]1CC[C@H]2[C@@H]3CC[C@@H]4C[C@H](OS(=O)(=O)O)CC[C@]4(C)[C@H]3CC[C@]12C.c1ccncc1` has an IC50 [1] of 600 nM, an IC50 [2] of 600 nM and an IC50 [3] of 400 nM. It also gave an IC50 [4] of 500 nM, an IC50 (Glutamate NMDA receptor) of 900 nM and an IC50 [5] of 9500 nM. For the same compound, the IC50 [6] was 1200 nM.

Compound `C=C1CC[C@H]2[C@@H]3CC[C@@H]4C[C@H](OS(=O)(=O)O)CC[C@]4(C)[C@H]3CC[C@]12C.c1ccncc1` has an IC50 [1] of 1600 nM.

With `CC[C@H]1CC[C@H]2[C@@H]3CC[C@@H]4C[C@H](OS(=O)(=O)O)CC[C@]4(C)[C@H]3CC[C@]12C.c1ccncc1` the IC50 [1] was 400 nM.

In the case of `C[C@]12CC[C@@H](OS(=O)(=O)O)C[C@H]1CC[C@@H]1[C@@H]2CC[C@]2(C)C=CC[C@@H]12.c1ccncc1`, the inhibition [7] is reported as “inactive”.

For `C[C@]12CC[C@@H](OS(=O)(=O)O)C[C@H]1CC[C@@H]1[C@@H]2CC[C@]2(C)[C@@H](I)CC[C@@H]12.c1ccncc1`, the IC50 [1] was 600 nM.

In the case of `CC[C@@H](C)[C@H]1CC[C@H]2[C@@H]3CC[C@@H]4C[C@H](OS(=O)(=O)O)CC[C@]4(C)[C@H]3CC[C@]12C.c1ccncc1`, the IC50 [1] is reported as 90 nM.

With `C=C1C[C@H]2[C@@H]3CC[C@@H]4C[C@H](OS(=O)(=O)O)CC[C@]4(C)[C@H]3CC[C@]2(C)C1.c1ccncc1` the IC50 [1] was 2200 nM.
